“Also recorded” adds a separate entry of the source.

In this data set the test system is MPG2. Briefly: Protein-DNA DAPPL binding assay on a protein microarray of two human TF proteins and BSA, ligation products detected by PCR. The conditions noted are these: array of two human TF proteins and BSA; Sanger sequencing, six of six clones as expected. The text has this:
A DAPPL approach was applied to establish a comprehensive screen for protein-DNA interactions. As illustrated in FIG. 19A and FIG. […] Meanwhile, a pool of DNA polynucleotides was synthesized that each contains eight random nucleotides with a CpG in the middle and two fixed sequences on both sides. After a double-stranded DNA pool was made with a Klenow reaction, bacterial enzyme SssI is used to methylate the CpG, followed by treatment with a T4 DNA polymerase to generate a 5′-overhang. This pool of 65,536 species was then incubated on the TF array, washed, and the captured DNA fragments were ligated to the address polynucleotides. In each ligated sequence, a mCpG containing 8-mer sequence is now connected to an address oligo representing the TF protein that has captured this 8-mer in the binding assay. Therefore, it is an “all-to-all” screening approach. […] The ligated products were then recovered from the slide and PCR-amplified. […] Bioinformatics analyses were performed to determine whether there was any enrichment of consensus motifs for each TF protein.
After cloning the PCR fragments, Sanger sequencing was performed to determine the PCR-amplified sequences. Six of six sequenced clones gave the expected sequences from the ligation on the array.

“M62: methylated DNA motif M62 (SEQ ID NO: 10) used as probe on the TF protein microarray (DNA ATATGCATCG; methylated DNA motif, methylated positions not given here)”: the “capture of the methylated DNA motif by the TF spot (recovery of ligation products by PCR)” value was “captures; also recorded: successfully recovered using a PCR reaction only from the expected TF spot”.

Values taken from patent publication US20160060687A1, “METHODS AND COMPOSITIONS TO IDENTIFY, QUANTIFY, AND CHARACTERIZE TARGET ANALYTES AND BINDING MOIETIES” (CDI Laboratories, Inc., priority 2014, published 2016).
